Consider two molecules from patent EP0039646A1, “1,4-Benzodioxines, processes for their preparation and their use in therapy” (RIOM LABORATOIRES- C.E.R.M. (Société Anonyme), priority 1980, dated 1981).

One series has as its target T1, récepteurs β1 (Cavia porcellus, UniProt H0W3H1).
T1 construct: sur les récepteurs β1 de l'oreillette gauche de cobaye stimulée électriquement; from tissue; host or cells: isolated guinea pig left atrium, electrically stimulated
The experiment in a line: Antagonism of the positive inotropic effect of isoprenaline on electrically stimulated guinea pig left atrium. Details: species or system cobaye. An excerpt:
(§1) L'activité pharmacologique des composés de l'invention a été révélée par recherche d'une interférence avec les récepteurs adrénergiques β1, β2 et α in vitro, et confirmée in vivo par les effets antihypertenseurs observés après administration desdits composés chez le rat spontanément hypertendu anesthésié.
(§2) Les essais effectués in vitro correspondent aux protocoles résumés ci-après : • - Récepteurs adrénergiques β1 : on recherche l'antagonisme de l'effet inotrope positif de l'isopré- naline sur les récepteurs β1 de l'oreillette gauche de cobaye stimulée électriquement. • - Récepteurs adrénergiques 6 2 : on recherche l'antagonisme des effets bronchodilatateurs de l'iso- prénaline sur les récepteurs β2 du muscle trachéal de cobaye. • - Récepteurs adrénergiques α : on étudie l'interférence des composés de l'invention sur la contraction du vas déferens isolé du rat, provoquée par des doses cumulatives de noradrénaline.
(§3) Les résultats exprimés par les paramètres usuels de pharmacologie moléculaire, selon les critères utilisés par Van Rossum [Arch. Int.

The subject of series [1] is Récepteurs adrénergiques α. Description: Interference with the contraction of isolated rat vas deferens caused by cumulative doses of noradrenaline.
Description: as §1, §2, §3

Series [2] in a line: Acute oral toxicity in mice. The conditions noted are these: mouse, in vivo, voie orale, souris, read-out: toxicité aiguë. The protocol:
Ces résultats montrent en particulier le grand intérêt du composé n° 2 qui présente un antagonisme très sélectif du type dualiste vis-à-vis des récepteurs β adrénergiques et fait preuve d'une remarquable activité in vivo chez le rat spontanément hypertendu anesthésié. Il a d'autre part été possible d'évaluer à 120 mg.kg-^1 la toxicité aiguë du composé n° 2 par voie orale chez la souris.

In a further series the target is T2, récepteurs β2 (Cavia porcellus, UniProt Q8K4Z4).
T2 construct: sur les récepteurs β2 du muscle trachéal de cobaye; from tissue; host or cells: guinea pig tracheal muscle
T2 sequence (Q8K4Z4 whole entry): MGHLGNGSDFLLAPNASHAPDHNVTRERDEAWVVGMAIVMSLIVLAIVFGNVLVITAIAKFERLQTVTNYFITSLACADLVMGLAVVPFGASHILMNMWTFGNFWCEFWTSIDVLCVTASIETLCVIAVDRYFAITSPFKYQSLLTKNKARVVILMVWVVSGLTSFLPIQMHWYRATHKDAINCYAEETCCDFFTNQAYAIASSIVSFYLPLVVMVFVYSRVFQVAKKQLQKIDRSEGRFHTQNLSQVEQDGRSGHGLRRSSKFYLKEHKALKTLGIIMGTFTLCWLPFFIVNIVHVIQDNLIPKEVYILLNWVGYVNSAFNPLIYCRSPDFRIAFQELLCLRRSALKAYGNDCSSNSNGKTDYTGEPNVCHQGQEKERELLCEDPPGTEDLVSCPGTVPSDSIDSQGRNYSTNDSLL
Description: Antagonism of the bronchodilator effects of isoprenaline on guinea pig tracheal muscle. Details: species or system cobaye.
Description: as §1, §2, §3

For series [3], the system named is rat spontanément hypertendu anesthésié. Description: Antihypertensive effect in anaesthetised spontaneously hypertensive rats, carotid arterial pressure after i.v. injection. Type of series: in vivo. The protocol: Les essais in vivo ont été effectués chez des rats mâles (S.H.R. - I.F.F.A.) conformément au protocole résumé ci-après :
Après anesthésie au pentobarbital, on a disposé un cathéter au niveau de l'artère carotide pour enregistrer la pression artérielle, et un cathéter au niveau d'une veine jugulaire pour permettre les injections des composés de l'invention mis en solution dans 0,5 ml de PEG 200 (polyéthylène glycol). La durée de l'injection était de 1 minute.

T1 sequence (H0W3H1 1-470): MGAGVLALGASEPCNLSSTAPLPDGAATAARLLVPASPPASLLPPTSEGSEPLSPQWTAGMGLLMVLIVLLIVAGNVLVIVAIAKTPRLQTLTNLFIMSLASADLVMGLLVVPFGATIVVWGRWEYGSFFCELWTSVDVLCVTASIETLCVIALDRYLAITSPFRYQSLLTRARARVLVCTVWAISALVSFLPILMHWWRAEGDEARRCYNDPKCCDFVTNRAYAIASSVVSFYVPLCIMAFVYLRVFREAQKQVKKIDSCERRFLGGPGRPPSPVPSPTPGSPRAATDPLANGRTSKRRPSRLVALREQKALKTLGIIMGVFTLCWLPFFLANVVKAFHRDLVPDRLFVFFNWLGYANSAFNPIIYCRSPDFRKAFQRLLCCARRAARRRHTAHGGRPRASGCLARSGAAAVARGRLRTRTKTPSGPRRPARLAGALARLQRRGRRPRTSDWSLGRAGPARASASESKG

Turning to `COc1ccccc1N1CCN(CC(O)C2=COc3ccccc3O2)CC1` (stereo not shown) [exemple 2, 2-méthanolα-[4-(2-methoxyphenyl)piperazinyl-1] methyl benzo (1,4) dioxine], at récepteurs β1 (Récepteurs β1, guinea pig left atrium, isoprenaline, Van Rossum criteria), the “pD'2” value is 4,84. Besides, at récepteurs β1 (Récepteurs β1, guinea pig left atrium, isoprenaline, Van Rossum criteria, read-out: pA2 (converted)), the Kb was 912 nM. In series [1] (dose 10^-4 M/1), the “potentialisation des effets de la noradrénaline” value turned out to be 180%. The LD50 in series [2] was determined as 120 mg/kg. In addition, the “Récepteurs β2” value on récepteurs β2 is given as “inactif”. The “durée de l'effet antihypertenseur” value in series [3] (dose 2,5 mg.kg^-1, jugular vein injection in PEG 200, male SHR rats under pentobarbital) is over 45 min.
For the molecule `OC(CN1CCN(c2cccc(C(F)(F)F)c2)CC1)C1=COc2ccccc2O1` (stereo not shown) [exemple 1, 2-méthanoloα-[4-(3-trifluoromethylphenyl)piperazinyl-1] methyl benzo (1,4) dioxine], the “action sur les récepteurs β1” value at récepteurs β1 (10^-4 M/1) is listed as “très faiblement compétitive”. Also, the “Récepteurs α” value in series [1] (noradrenaline) is listed as “inactif”. Besides, at récepteurs β2, the “Récepteurs β2” value is recorded as “inactif”. Moreover, the “durée de l'effet antihypertenseur” value in series [3] (dose 20 mg.kg^-1, jugular vein injection in PEG 200, male SHR rats under pentobarbital) came to 20 min.
